Data as given in patent US8211915B2, “Biphenyl compounds useful as muscarinic receptor antagonists” (Theravance, Inc., priority 2004, dated 2012).
pKi: −log10 of the molar value.

Target: T1, hM3 muscarinic receptor subtype (Homo sapiens, UniProt P20309)
T1 construct: expressed in transfected cells; crude membranes prepared in house
Experiment: Radioligand binding assay ([3H]-NMS displacement)
Conditions: [3H]-NMS 1 nM, CHO cell membranes, 60 minutes at 37° C.; read-out: Ki value for the M3 muscarinic receptor subtype
Protocol: A. Membrane Preparation from Cells Expressing hM1, hM2, hM3 and hM4 Muscarinic Receptor Subtypes
CHO cell lines stably expressing cloned human hM1, hM2, hM3 and hM4 muscarinic receptor subtypes, respectively, were grown to near confluency in medium consisting of HAM's F-12 supplemented with 10% FBS and 250 μg/mL Geneticin. The cells were grown in a 5% CO2, 37° C. incubator and lifted with 2 mM EDTA in dPBS. Cells were collected by 5 minute centrifugation at 650×g, and cell pellets were either stored frozen at −80° C. or membranes were prepared immediately. For membrane preparation, cell pellets were resuspended in lysis buffer and homogenized with a Polytron PT-2100 tissue disrupter (Kinematica AG; 20 seconds×2 bursts). […] The protein concentration of the membrane suspension was determined by the method described in Lowry, O. et al., […] 193:265 (1951). […]
Radioligand binding assays were performed in 96-well microtiter plates in a total assay volume of 100 μL. […] Filter plates were rinsed three times with wash buffer (10 mM HEPES) to remove unbound radioactivity. […] The plates were then counted in a PerkinElmer Topcount liquid scintillation counter (PerkinElmer Inc., Wellesley, Mass.). Binding data were analyzed by nonlinear regression analysis with the GraphPad Prism Software package (GraphPad Software, Inc., San Diego, Calif.) using the one-site competition model. […]

T1 sequence (P20309 whole entry): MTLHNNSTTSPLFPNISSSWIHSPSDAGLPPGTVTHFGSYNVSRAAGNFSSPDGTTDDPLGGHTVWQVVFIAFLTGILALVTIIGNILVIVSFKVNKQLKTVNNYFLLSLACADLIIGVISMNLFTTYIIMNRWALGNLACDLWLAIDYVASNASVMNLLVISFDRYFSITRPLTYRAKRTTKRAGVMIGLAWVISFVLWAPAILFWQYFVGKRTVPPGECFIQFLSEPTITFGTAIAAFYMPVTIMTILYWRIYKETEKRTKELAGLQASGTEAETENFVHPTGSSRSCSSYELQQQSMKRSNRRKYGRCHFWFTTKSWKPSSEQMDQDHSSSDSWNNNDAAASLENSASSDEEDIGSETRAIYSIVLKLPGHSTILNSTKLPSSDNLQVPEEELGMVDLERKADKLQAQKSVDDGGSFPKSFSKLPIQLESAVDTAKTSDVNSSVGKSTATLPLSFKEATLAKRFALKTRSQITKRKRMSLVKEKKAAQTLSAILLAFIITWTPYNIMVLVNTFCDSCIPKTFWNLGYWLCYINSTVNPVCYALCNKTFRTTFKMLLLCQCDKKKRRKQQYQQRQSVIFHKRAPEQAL

pKi: > 8.30
Structure (SMILES): NC(=O)C1CCN(Cc2ccc(NC(=O)CCN3CCC(OC(=O)Nc4ccccc4-c4ccccc4)CC3)cc2)CC1 [Example 1, Biphenyl-2-ylcarbamic Acid 1-{2-[4-(4-Carbamoylpiperidin-1-ylmethyl)phenylcarbamoyl]ethyl}piperidin-4-yl Ester]
